From PMC6644994, “Chemical Ligand Space of Cereblon” (ACS Omega, 2018)
“Also recorded” adds a separate entry of the source. Read-outs that look alike come from different tables or passages of the source.

Assays:
MsCI4 [1] = molecular target: MsCI4 (Magnetospirillum gryphiswaldense, UniProt A4TVL0, W36F/W59F); assay: biochemical; assay type: binding
[2] = test system: zebrafish embryos (cereblon-mediated pectoral fin malformation); assay: Zebrafish pectoral fin deformity assay
MsCI4 [3] = molecular target: T1, MsCI4 (Magnetospirillum gryphiswaldense, UniProt A4TVL0); assay: X-ray crystallography of MsCI4·ligand crystals obtained by soaking; assay type: binding; set-up: key to binding verified via crystallography (symbol in Table S1): X-tal: binding verified via crystallography; settings: for binding verified via crystallography (in words): MsCI4·thalidomide crystals soaked with solid rolipram
T1 sequence (A4TVL0 1-124): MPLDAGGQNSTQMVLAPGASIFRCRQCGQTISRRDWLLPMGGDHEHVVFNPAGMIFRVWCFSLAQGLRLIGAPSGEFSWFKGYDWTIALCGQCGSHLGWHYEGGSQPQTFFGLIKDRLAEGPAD
Excerpt: In a next step, we characterized the binding of representative compounds via X-ray crystallography. […] (II) The structures with ethosuximide, hydantoin, 2-thiohydantoin, and thiazolidine-2,4-dione verify that imides with 5-membered rings have the same basic binding mode as 6-membered rings. (III) The binding mode of γ-butyrolactam, δ-valerolactam and rolipram verifies that lactams have a binding mode analogous to imides, with their carbonyl group occupying position d. […] Importantly, in a direct comparison with the crystal structure of the human thalidomide-binding domain, none of the protruding moieties of the effectors is interacting or in contact with any nonconserved amino acid side chain, such that their binding modes are not influenced by species-specific differences (Figure S2).
After 40 h of soaking, these crystals were loop-mounted and flash-cooled in liquid nitrogen. Data were collected at 100 K and a wavelength of 1 Å on a PILATUS 6M-F detector at beamline X10SA of the Swiss Light Source (PSI, Villigen, Switzerland). Diffraction images were indexed, integrated, and scaled using XDS.[34] […] Data collection and refinement statistics are summarized together with PDB accession codes in Table S2. All molecular depictions were prepared using MolScript,[37] BobScript,[38] and Raster3D.[39]

[4] = test system: zebrafish embryos (cereblon-mediated pectoral fin malformation); settings: cited from earlier work
[5] = Table S1, affinity for MsCI4, FRET assay, read-out: Ki
[6] = zebrafish embryos, 400 μM, 75 h post fertilization

Sequence of MsCI4 (Magnetospirillum gryphiswaldense, UniProt A4TVL0, W36F/W59F) (A4TVL0 entry or part of it W36F/W59F): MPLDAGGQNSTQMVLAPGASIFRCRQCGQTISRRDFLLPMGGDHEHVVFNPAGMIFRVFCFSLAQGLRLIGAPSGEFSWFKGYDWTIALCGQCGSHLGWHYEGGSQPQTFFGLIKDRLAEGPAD

| Compound | Ki (MsCI4 [1]) [µM] | binding to MsCI4 in the FRET assay (in words) (MsCI4 [1]; FRET assay) | also measured |
| --- | --- | --- | --- |
| O=C1CSC(=O)N1 [Thiazolidine-2,4-dione] | 137 ± 15.9 |  |  |
| Cc1cn([C@H]2C[C@H](O)[C@@H](CO)O2)c(=O)[nH]c1=O [Thymidine] | 204 ± 34.5 | very low but measurable affinities |  |
| O=C1CCCCN1 [δ-Valerolactam, Piperidin-2-one] | 146 ± 20.3 |  |  |
| O=C1CCCN1 [γ-Butyrolactam, Pyrrolidin-2-one] | 57 ± 11.6 |  |  |
| O=C1CCCCCN1 [ε-Caprolactam] | > 1000 | no detectable binding |  |
| O=C1CCCCCCN1 [1-Azo-2-Cyclooctanone] |  |  | Ki (MsCI4 [1]; [5]): > 1000 µM |
| CC(=O)NCCN [N-(2-Aminoethyl)acetamide] | > 1000 | could not detect any binding |  |
| CC1(C)OC(=O)NC1=O [5,5-Dimethyl-oxazolidine-2,4-dione] | > 1000 | no detectable binding |  |
| C1CCNC1 [Pyrrolidine] |  |  | Ki (MsCI4 [1]; [5]): > 1000 µM |
| CN1CC(=O)NC1=O [N-Methylhydantoin] | 16 ± 1.3 |  |  |
| O=C1CCCC(=O)N1 [Glutarimide, Piperidine-2,6-dione] |  |  | effect on pectoral fin deformity of injecting zcrbnYW/AA mRNA (thalidomide-insensitive cereblon mutant) [2, 6]: alleviated; pectoral fin deformity / teratogenic effect [2, 6]: strongest effect; also recorded: cause developmental defects |
| COc1ccc(C2CNC(=O)C2)cc1OC1CCCC1 (stereo not drawn) [Rolipram] |  |  | binding verified via crystallography (in words) (MsCI4 [3]): binding was confirmed via crystallography; binding verified via crystallography (in words) (MsCI4 [3]; listed as rolipram): could verify its binding via crystallography; also recorded: verified by crystallography; binding verified via crystallography (symbol in Table S1) (MsCI4 [3]; Table S1): X-tal |
| Pyrrol-2,5-dione [Maleimide] |  |  | Ki (MsCI4 [1]; [5]): 35 ± 3.1 µM |
| CC1CCC(=O)N1 (stereo not drawn) [5-Methylpyrrolidin-2-one] | 19 ± 6 |  |  |
| CN1CC(=O)NC1=N [Creatinine, 2-Imino-N-methylhydantoin] | > 1000 |  |  |
| S=C1CCCN1 [Pyrrolidine-2-thione] | > 1000 |  |  |
| O=c1[nH]cc([C@@H]2O[C@H](CO)[C@@H](O)[C@H]2O)c(=O)[nH]1 [Pseudouridine] | > 1000 | not detectable; also recorded: no detectable binding |  |
| CC(=O)NCCCCC(N)C(=O)O (stereo not drawn) [N-ε-Acetyllysine, 2-azaniumyl-6-acetamidohexanoate] | > 1000 | could not detect any binding |  |
| O=C1CC(=O)NC(=O)N1 [Barbiturate] | > 1000 | abolished binding | pectoral fin deformity / teratogenic effect [2, 6]: no effect; also recorded: does not cause any effects |
| O=C1CNC(=O)N1 [Hydantoin, Imidazolidine-2,4-dione] | 43 ± 10.7 |  |  |
| O=C1CCC(=O)N1 [Succinimide, Pyrrolidine-2,5-dione] | 4.3 ± 0.5 |  |  |
| O=c1ccn([C@H]2C[C@H](O)[C@@H](CO)O2)c(=O)[nH]1 [Deoxyuridine] | 15 ± 1.6 |  |  |

| Compound | Ki (MsCI4 [1]) [µM] | binding to MsCI4 in the FRET assay (in words) (MsCI4 [1]; FRET assay) | also measured |
| --- | --- | --- | --- |
| O=C1CCNC(=O)N1 [Dihydrouracil, Hexahydropyrimidine-2,4-dione] | 88 ± 6.8 |  |  |
| O=C1CCN1 [Azetidin-2-one] |  |  | Ki (MsCI4 [1]; [5]): 77 ± 11 µM |
| O=C1CCC(=O)O1 [Succinic Anhydride] | > 1000 |  |  |
| CC(=O)NC(N)=O [N-Acetylurea] |  | detectable | Ki (MsCI4 [1]; printed in figures and text, FRET assay, read-out: Experimental Ki values for MsCI4): 522 µM |
| CCC1(C)CC(=O)NC1=O (stereo not drawn) [Ethosuximide, 3-Ethyl-3-methylsuccinimide] | 136 ± 11.6 |  |  |
| O=C1CCCO1 [γ-Butyrolactone] | > 1000 |  |  |
| CCC1(C)NC(=O)NC1=O (stereo not drawn) [5-Ethyl-5-methyl-hydantoin] | > 1000 | no binding was detectable |  |
| CC(N)=O [Acetamide] |  | could not detect any binding | Ki (MsCI4 [1]; [5]): > 1000 µM |
| CCC1(c2ccc(N)cc2)CCC(=O)NC1=O (stereo not drawn) [Aminoglutethimide] | 39 ± 3.8 |  |  |
| O=C1CCCC(=O)O1 [Glutaric Anhydride] | > 1000 |  |  |
| C[C@@H]1C[C@@H]([C@H](O)CC2CC(=O)NC(=O)C2)C(=O)[C@@H](C)C1 [Cycloheximide] | > 1000 | abolished binding |  |
| O=c1cc[nH]c(=O)[nH]1 [Uracil, Pyrimidine-2,4-dione] | 35 ± 5.1 |  |  |
| O=c1ccn([C@@H]2O[C@H](CO)[C@@H](O)[C@H]2O)c(=O)[nH]1 [Uridine] | 13 ± 1.9 |  | teratogenic effect on fin formation in zebrafish ([4]; zebrafish): same effect on fin formation |
| C1CCNCC1 [Piperidine] | > 1000 |  |  |
| O=C1CNC(=S)N1 [2-Thiohydantoin] | 13 ± 1.3 |  |  |
| Cc1c[nH]c(=O)[nH]c1=O [Thymine, 5-Methylpyrimidine-2,4-dione] | 478 ± 41.6 | very low but measurable affinities |  |
| N-(2-Hydroxypropyl)acetamide |  | could not detect any binding | Ki (MsCI4 [1]; [5]): > 1000 µM |
| NC(=O)NC(=O)Cc1ccccc1 [Phenylacetylurea] |  | did not bind | Ki (MsCI4 [1]; [5]): > 1000 µM |
| Nc1cc[nH]c(=O)n1 [Cytosine] | > 1000 |  |  |
| O=C1CCC(N2C(=O)c3ccccc3C2=O)C(=O)N1 (stereo not drawn) [Thalidomide] |  |  | pectoral fin development in zebrafish embryos ([4]; zebrafish embryos): stunted pectoral fins; pectoral fin phenotype ([2]; zebrafish, 200 μM): not clearly identifiable |
| COc1ccc(C2CNC(=O)C2)cc1OCCCN1CCC(C(=O)c2ccc(F)cc2)CC1 (stereo not drawn) [Lidanserin] | 25 ± 8.5 |  |  |
